Columns and labels:
[1] = versus BAPO; cited from earlier work
[2] = solubility of dye in resin formulation; type: physicochemical; settings: final resin formulation (oligomer, PC, DDFD)
Procedure: The C&D Green Dye #6 is added to the resin to increase the absorbance of the resin for higher resolution printing. […] To mix C&D Green Dye #6 into the resin, the dye is first solubilized in PC at 0.06 wt % at 80° C. The stock solution of 0.06 wt % dye in PC is added to the oligomer to achieve the desired 0.03% concentration in the final resin.
Crystals of the C&D Green Dye #6 may be observed in this resin. C&D Green Dye #6 tends to crystalize in the resin. To prevent crystal aggregation, this resin should be mixed fresh prior to printing.

solubility in the final formulation [2]	Structure (SMILES)	cytotoxicity relative to traditional UV photoinitiators such as BAPO [1]
–	CC1(C)COC(=O)C1=O [DDFD, dihydro-4,4-dimethyl-2,3-furandione]	orders of magnitude less cytotoxic
limited solubility	Cc1ccc(Nc2ccc(Nc3ccc(C)cc3)c3c2C(=O)c2ccccc2C3=O)cc1 [C&D Green Dye #6, 1,4-bis(p-tolylamino)anthraquinone]	–
